Data reported in US12605364B2, “Methods of treating SARS-CoV-2 infections” (priority 2020, dated 2026).
Converted amounts (≈) assume the structure as drawn. “And” between values parts separate entries of the source, which are not always exact repeats. Identical values can stand only once.

Test system: SARS-CoV-2
Test: Virus neutralization (VN) assay, scoring of SARS-CoV-2 cytopathic effects (CPE) in Vero E6 cells
Assay type: cell-based

O=C1CN(/N=C/c2ccc(-c3ccc([N+](=O)[O-])cc3)o2)C(O)=N1 [dantrolene]
CPE observed: no CPE was observed | Day 4 Read (CPE in wells): 3/3 wells had No CPE and 2/3 wells had >90% and 1/3 wells had >90% and 3/3 wells had >90% and 3/3 wells had sparce | Day 6 Read (CPE in wells): 3/3 wells had No CPE and 2/3 wells had >90% and 1/3 wells had >90% and 3/3 wells had >90% and 3/3 wells had sparce | anti-viral activity: showed anti-viral activity | cytopathic effects (indicating virus growth): No cytopathic effects | MIC (Severe acute respiratory syndrome coronavirus 2, read-out: minimum inhibitory concentration): 20 µM (≈ 6.29 µg/mL)
